Columns and labels:
[1] = Cytotoxicity against human CCD 19Lu cells incubated for 24 hrs by MTT assay; assay type: toxicity, cell-based
A549 [2] = assay: cells; conditions: Homo sapiens, A549, 24 h
Description: Cytotoxicity against human A549 cells incubated for 24 hrs by MTT assay

A549 [3] = assay: Induction of apoptosis in human A549 cells assessed as viable cells at IC50 incubated for 24 hrs by Annexin V-FITC/PI staining based flow cytometry (reference value: 96.48 %); assay type: functional
A549 [4] = assay: Induction of apoptosis in human A549 cells assessed as early apoptotic cells at IC50 incubated for 24 hrs by Annexin V-FITC/PI staining based flow cytometry (reference value: 0.11 %); assay type: functional
A549 [5] = assay: Induction of apoptosis in human A549 cells assessed as late apoptotic cells at IC50 incubated for 24 hrs by Annexin V-FITC/PI staining based flow cytometry (reference value: 1.36 %); assay type: functional
A549 [6] = assay: Induction of apoptosis in human A549 cells assessed as necrotic cells at IC50 incubated for 24 hrs by Annexin V-FITC/PI staining based flow cytometry (reference value: 2.05 %); assay type: functional
A549 [7] = assay: Induction of apoptosis in human A549 cells assessed as caspase-3-positive cells at IC50 incubated for 24 hrs by flow cytometry (reference value: 1.50 %); assay type: functional
A549 [8] = assay: Induction of apoptosis in human A549 cells assessed as caspase-3-negative cells at IC50 incubated for 24 hrs by flow cytometry (reference value: 98.49 %); assay type: functional
A549 [9] = assay: Induction of cell cycle arrest at G0/G1 phase in human A549 cells at IC50 incubated for 24 hrs by PI staining based flow cytometry (reference value: 9.17 %); assay type: functional
A549 [10] = assay: Induction of cell cycle arrest at S phase in human A549 cells at IC50 incubated for 24 hrs by PI staining based flow cytometry (reference value: 59.62 %); assay type: functional
A549 [11] = assay: Induction of cell cycle arrest at G2/M phase in human A549 cells at IC50 incubated for 24 hrs by PI staining based flow cytometry (reference value: 14.00 %); assay type: functional

Row | IC50 (A549 [2]) [µM] | SMILES | IC50 at 24 h [1] [µM] | Activity (A549 [3]) [%] | Activity (A549 [4]) [%] | Activity (A549 [5]) [%] | Activity (A549 [6]) [%] | Activity (A549 [7]) [%] | Activity (A549 [8]) [%] | Activity (A549 [9]) [%] | Activity (A549 [10]) [%] | Activity (A549 [11]) [%]
1 | 87.5 | N#Cc1ccc(-c2cn3c(CC(=O)N/N=C/c4ccc(-n5cncn5)cc4)csc3n2)cc1 | > 500 |  |  |  |  |  |  |  |  | 
2 | > 500 | N#Cc1ccc(-c2cn3c(CC(=O)N/N=C/c4ccc(C(F)(F)F)cc4)csc3n2)cc1 |  |  |  |  |  |  |  |  |  | 
3 | 22.5 | CC(C)(C)c1ccc(/C=N/NC(=O)Cc2csc3nc(-c4ccc(C#N)cc4)cn23)cc1 | 66.5 | 79.17 | 15.38 | 5.13 | 0.32 | 4.14 | 95.41 | 3.91 | 48.94 | 20.92
4 | > 500 | N#Cc1ccc(-c2cn3c(CC(=O)N/N=C/c4ccc(N5CCCC5)cc4)csc3n2)cc1 |  |  |  |  |  |  |  |  |  | 
5 | 23.8 | N#Cc1ccc(-c2cn3c(CC(=O)N/N=C/c4ccc(O)cc4)csc3n2)cc1 | > 500 | 92.05 | 0.03 | 4.03 | 3.89 | 2.36 | 97.42 | 4.95 | 32.15 | 26.23
6 | 43.7 | N#Cc1ccc(/C=N/NC(=O)Cc2csc3nc(-c4ccc(C#N)cc4)cn23)cc1 | > 500 | 62.71 | 22.33 | 14.85 | 0.11 | 34.94 | 63.66 | 13.81 | 43.76 | 12.95
7 | 17.7 | Cc1ccc(/C=N/NC(=O)Cc2csc3nc(-c4ccc(C#N)cc4)cn23)cc1 | 115 | 77.37 | 16.74 | 5.72 | 0.17 | 1.88 | 97.98 | 6.54 | 62.99 | 13.74
8 | 15.5 | CC(C)c1ccc(/C=N/NC(=O)Cc2csc3nc(-c4ccc(C#N)cc4)cn23)cc1 | < 3.9 |  |  |  |  |  |  |  |  | 
9 | > 500 | N#Cc1ccc(-c2cn3c(CC(=O)N/N=C/c4ccc(Br)cc4)csc3n2)cc1 |  |  |  |  |  |  |  |  |  | 
10 | 51.3 | N#Cc1ccc(-c2cn3c(CC(=O)N/N=C/c4ccccc4)csc3n2)cc1 | > 500 | 87.52 | 8.7 | 3.76 | 0.02 | 3.97 | 95.65 | 7.37 | 38.28 | 16.14
11 | > 500 | N#Cc1ccc(-c2cn3c(CC(=O)N/N=C/c4ccc(-c5ccccn5)cc4)csc3n2)cc1 |  |  |  |  |  |  |  |  |  | 
12 | > 500 | N#Cc1ccc(-c2cn3c(CC(=O)N/N=C/c4ccc([N+](=O)[O-])cc4)csc3n2)cc1 |  |  |  |  |  |  |  |  |  | 
13 | > 500 | N#Cc1ccc(Oc2ccc(/C=N/NC(=O)Cc3csc4nc(-c5ccc(C#N)cc5)cn34)cc2)cc1 |  |  |  |  |  |  |  |  |  | 
14 | > 500 | N#Cc1ccc(-c2cn3c(CC(=O)N/N=C/c4ccc5ccccc5c4)csc3n2)cc1 |  |  |  |  |  |  |  |  |  | 
15 | 16.9 | N#Cc1ccc(-c2cn3c(CC(=O)N/N=C/c4ccc(-n5ccnc5)cc4)csc3n2)cc1 | 1.44 |  |  |  |  |  |  |  |  | 
16 | 221 | N#Cc1ccc(-c2cn3c(CC(=O)N/N=C/c4ccc(N5CCCCC5)cc4)csc3n2)cc1 | > 500 |  |  |  |  |  |  |  |  | 
17 | > 500 | N#Cc1ccc(-c2cn3c(CC(=O)N/N=C/c4ccc(Oc5ccccc5)cc4)csc3n2)cc1 |  |  |  |  |  |  |  |  |  | 
18 | > 500 | N#Cc1ccc(-c2cn3c(CC(=O)N/N=C/c4ccc(Cl)cc4)csc3n2)cc1 |  |  |  |  |  |  |  |  |  | 
19 | 379 | CSc1ccc(/C=N/NC(=O)Cc2csc3nc(-c4ccc(C#N)cc4)cn23)cc1 | > 500 |  |  |  |  |  |  |  |  | 
20 | 14.3 | COc1ccc(/C=N/NC(=O)Cc2csc3nc(-c4ccc(C#N)cc4)cn23)cc1 | 51.7 | 73.36 | 21.98 | 4.42 | 0.24 | 2.58 | 97.08 | 5.65 | 68.81 | 10.28
21 | 101 | N#Cc1ccc(-c2cn3c(CC(=O)N/N=C/c4ccc(F)cc4)csc3n2)cc1 | 44.4 |  |  |  |  |  |  |  |  | 
22 | 133 | CS(=O)(=O)c1ccc(/C=N/NC(=O)Cc2csc3nc(-c4ccc(C#N)cc4)cn23)cc1 | 160 |  |  |  |  |  |  |  |  | 
23 | > 500 | N#Cc1ccc(-c2cn3c(CC(=O)N/N=C/c4ccc(Oc5ccc([N+](=O)[O-])cc5)cc4)csc3n2)cc1 |  |  |  |  |  |  |  |  |  | 
24 | > 500 | N#Cc1ccc(-c2cn3c(CC(=O)N/N=C/c4ccc(Oc5ccc(F)cc5)cc4)csc3n2)cc1 |  |  |  |  |  |  |  |  |  | 
25 | 12.2 | N#Cc1ccc(-c2cn3c(CC(=O)N/N=C/c4ccc(N5CCOCC5)cc4)csc3n2)cc1 | 4.9 |  |  |  |  |  |  |  |  | 
26 | > 500 | N#Cc1ccc(-c2cn3c(CC(=O)N/N=C/c4ccc(Oc5ccc(Cl)cc5)cc4)csc3n2)cc1 |  |  |  |  |  |  |  |  |  | 
27 | > 500 | N#Cc1ccc(-c2cn3c(CC(=O)N/N=C/c4ccc(Oc5ccc(Br)cc5)cc4)csc3n2)cc1 |  |  |  |  |  |  |  |  |  | 
28 |  | C#Cc1cccc(Nc2ncnc3cc(OCCOC)c(OCCOC)cc23)c1 [ERLOTINIB] |  | 82.76 | 12.28 | 4.86 | 0.09 | 6.31 | 93.1 | 12.58 | 54.85 | 13.45
29 | 11.8 | CCn1c(-c2nonc2N)nc2c(C#CC(C)(C)O)ncc(OC[C@H]3CCCNC3)c21 [GSK-690693] |  | 36.36 | 43 | 18.78 | 1.86 | 24.29 | 73.93 | 30.35 | 27.55 | 13.5

— ChEMBL document CHEMBL5608203, “Design, synthesis and biological evaluation of a new series of imidazothiazole-hydrazone hybrids as dual EGFR and Akt inhibitors for NSCLC therapy” (Eur J Med Chem, 2024)
